{
  "source": "patent US8178133B2",
  "about": "“Magnesium compositions and uses thereof” (Magceutics, Inc., priority 2007, dated 2012)",
  "key": {"[1]": {"tested_on": "young and aging/aged rats", "test": "Elevated T-maze test, spatial working memory", "format": "in vivo, Sprague Dawley (SD) rats", "conditions": "MgCl2 diet", "procedure": "Twenty 2-month old, male Sprague Dawley (SD) rats were housed in a temperature-controlled room (22° C. to 25° C.) with a dark period from 08:00 pm to 08:00 am daily. […] Over 7 days before the training and trial period began, each rat was handled and habituated to the maze and to Kellogg's Froot Loop cereal.\nEach rat underwent a test of one trial, followed by an interval of 10-minutes, followed by another trial, and so on, for a total of 6 trials in one day. In each trial, each rat went through a sample run in the maze, followed by an interval of 15 seconds, followed by a choice run in the maze. In the sample run, the subject rat was forced to go to the left or to the right by the presence of a block, according to a pseudorandom sequence (with an equal number of left turns and right turns, and no more than two consecutive turns in the same direction). As a reward, Froot Loop cereal was available in the food well at the end of the run, regardless of the direction that was taken by virtue of the block. In the choice run, the block that had been present in the preceding sample run was removed, and the rat was allowed to choose to go to the left or to the right. […]\nThree groups of animals (young, aging, and magnesium-treated aging rats) were used. […] Spatial working memory was assessed using a T-maze non-matching-to-place task. […] Spatial working memory was first assessed on an elevated T-maze. […]"}, "aging rats": {"tested_on": "aging rats", "test": "Novel object recognition test in rats", "format": "in vivo, Sprague-Dawley rats"}, "[2]": {"tested_on": "mice genetically altered to present symptoms of Alzheimer's disease (AD)", "test": "Modified Morris water maze test in AD mice", "format": "in vivo", "conditions": "AD mice aged 13 months", "procedure": "Another group, the control group, of 10 mice that were genetically altered to present symptoms of AD were fed a Control Diet, a diet of normal solid food and water, for 30 days.\nThe pool used was a pool of water in a circular metal tank (150 cm in diameter and 50 cm in depth) having a water height of 30 cm and a water temperature that was maintained at ˜22° C. The pool was placed in a moderately lit area and surrounded by a black curtain. An acrylic platform (15 cm in diameter) was placed 2 cm below the surface of the water in the middle of one quadrant of the pool, equidistant from the center and the edge of the pool. Outside the pool, a cue was placed so as to be visible to a mouse in the maze, allowing a mouse to use it as a landmark for spatial orientation. The cue remained unchanged throughout the test period.\nOn the first day of the training and testing period, the water in the pool was transparent, such that the platform was visible. Each mouse was trained to swim towards the platform and to stand on the platform so as not to be submerged in the pool. […] The amount of time the mouse took to find the platform, referred to as “escape latency,” was recorded for each trial.\nOn the second day of the training and testing period, a small quantity of milk was added to the water in the pool, such that the pool was opaque and the platform was no longer visible. […]"}, "[3]": {"tested_on": "young (9-month old) and aged (25-month old) rats", "conditions": "food containing 2% magnesium oxide for 8 days; cited from earlier work"}},
  "data": [
    {"smiles": "[Cl-].[Cl-].[Mg+2]", "note": "[MgCl2]", "values": [
      {"measurement": "spatial working memory, choice accuracy with increased delay", "setting": "[1]; 2 and 5 min delays", "value": "significantly enhanced the performance of the aging rats"},
      {"measurement": "percentage of correct choices, learning of non-matching-to-place task", "setting": "[1]; 15 sec delay", "value": "performed significantly better from their first trials"},
      {"measurement": "novel object exploration preference", "setting": "aging rats; aging rats 12-14 months, 6 mg/kg MgCl2 from 8 months of age, single training, 10 minute retention interval", "value": "preferentially explored the novel object to the same extent as young rats"},
      {"measurement": "novel object exploration preference", "setting": "aging rats; aging rats, single training, 24 hours retention interval", "value": "lose there ability to distinguish novel versus familiar objects"},
      {"measurement": "novel object exploration preference", "setting": "aging rats; aging rats, two training sessions (spaced training), 24-hour retention interval", "value": "retained a high level of preference"}
    ]},
    {"smiles": "COc1cc2c(cc1OC)C(=O)C(CC1CCN(Cc3ccccc3)CC1)C2", "note": "(centres unmarked) [aricept]", "values": [
      {"measurement": "effect on learning capacity, comparison with anti-AD drugs", "setting": "[2]", "value": "both being better at reducing the effects of AD on learning capacity than aricept"}
    ]},
    {"smiles": "[O]=[Mg]", "note": "[magnesium oxide]", "values": [
      {"measurement": "cognitive function", "setting": "[3]", "value": "some sign of improvement of cognitive function"}
    ]},
    {"smiles": "CC12CC3CC(C)(C1)CC(N)(C3)C2", "note": "[memantine]", "values": [
      {"measurement": "effect on learning capacity, comparison with anti-AD drugs", "setting": "[2]", "value": "better at reducing the effects of AD on learning capacity than aricept"}
    ]}
  ]
}
